Results from ChEMBL document CHEMBL1150971, “Crystal structures of catalytic subunit of cAMP-dependent protein kinase in complex with isoquinolinesulfonyl protein kinase inhibitors H7, H8, and H89. Structural implications for selectivity” (J Biol Chem, 1996).

What was measured:
[1] = Inhibitory constant against cGPK (PKG); design: species or system Sus scrofa
[2] = molecular target: Myosin light chain kinase, smooth muscle (Gallus gallus, UniProt P11799); test: Inhibitory constant against MLCK
Casein kinase II = Casein kinase II (Homo sapiens, UniProt P19784+P67870+P68400); test: Inhibitory constant against CK2; type: protein-complex assay, Oryctolagus cuniculus
Casein kinase II, sequence (P67870 whole entry): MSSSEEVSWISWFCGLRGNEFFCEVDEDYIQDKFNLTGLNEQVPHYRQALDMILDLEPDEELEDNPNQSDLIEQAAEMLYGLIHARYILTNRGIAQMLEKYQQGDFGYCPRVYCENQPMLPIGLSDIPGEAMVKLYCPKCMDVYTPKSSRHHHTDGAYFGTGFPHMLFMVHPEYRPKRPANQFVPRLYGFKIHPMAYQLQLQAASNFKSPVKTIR
Casein kinase II, sequence (P68400 whole entry): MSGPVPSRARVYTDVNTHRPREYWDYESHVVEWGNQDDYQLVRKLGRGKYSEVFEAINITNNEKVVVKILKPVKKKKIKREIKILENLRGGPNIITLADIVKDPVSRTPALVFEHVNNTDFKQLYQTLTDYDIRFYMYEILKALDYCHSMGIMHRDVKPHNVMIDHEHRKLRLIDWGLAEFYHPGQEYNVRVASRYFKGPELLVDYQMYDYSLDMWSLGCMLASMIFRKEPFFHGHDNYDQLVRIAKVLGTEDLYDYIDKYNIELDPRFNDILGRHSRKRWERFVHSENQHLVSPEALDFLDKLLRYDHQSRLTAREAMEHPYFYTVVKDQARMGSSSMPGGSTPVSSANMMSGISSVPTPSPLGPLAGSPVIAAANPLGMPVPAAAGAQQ
Casein kinase II, sequence (P19784 whole entry): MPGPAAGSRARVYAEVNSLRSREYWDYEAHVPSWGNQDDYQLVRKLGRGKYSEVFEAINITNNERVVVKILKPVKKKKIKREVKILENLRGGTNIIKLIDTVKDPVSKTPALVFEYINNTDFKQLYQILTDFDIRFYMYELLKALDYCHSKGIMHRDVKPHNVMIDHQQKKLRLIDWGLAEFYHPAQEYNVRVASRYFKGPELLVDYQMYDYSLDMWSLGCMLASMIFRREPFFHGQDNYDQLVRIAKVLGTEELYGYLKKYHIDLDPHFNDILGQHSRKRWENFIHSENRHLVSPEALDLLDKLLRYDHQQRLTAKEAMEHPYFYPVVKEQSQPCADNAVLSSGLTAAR

[3] = Inhibitory constant against CK1; design: species or system Rattus norvegicus
Protein kinase C (PKC) = test: Inhibitory constant against PKC; type: protein assay, Oryctolagus cuniculus
[4] = molecular target: cAMP-dependent protein kinase alpha-catalytic subunit (Oryctolagus cuniculus, UniProt Q95J97); test: Inhibitory constant against cAPK (PKA)

Myosin light chain kinase, smooth muscle, sequence (P11799 whole entry): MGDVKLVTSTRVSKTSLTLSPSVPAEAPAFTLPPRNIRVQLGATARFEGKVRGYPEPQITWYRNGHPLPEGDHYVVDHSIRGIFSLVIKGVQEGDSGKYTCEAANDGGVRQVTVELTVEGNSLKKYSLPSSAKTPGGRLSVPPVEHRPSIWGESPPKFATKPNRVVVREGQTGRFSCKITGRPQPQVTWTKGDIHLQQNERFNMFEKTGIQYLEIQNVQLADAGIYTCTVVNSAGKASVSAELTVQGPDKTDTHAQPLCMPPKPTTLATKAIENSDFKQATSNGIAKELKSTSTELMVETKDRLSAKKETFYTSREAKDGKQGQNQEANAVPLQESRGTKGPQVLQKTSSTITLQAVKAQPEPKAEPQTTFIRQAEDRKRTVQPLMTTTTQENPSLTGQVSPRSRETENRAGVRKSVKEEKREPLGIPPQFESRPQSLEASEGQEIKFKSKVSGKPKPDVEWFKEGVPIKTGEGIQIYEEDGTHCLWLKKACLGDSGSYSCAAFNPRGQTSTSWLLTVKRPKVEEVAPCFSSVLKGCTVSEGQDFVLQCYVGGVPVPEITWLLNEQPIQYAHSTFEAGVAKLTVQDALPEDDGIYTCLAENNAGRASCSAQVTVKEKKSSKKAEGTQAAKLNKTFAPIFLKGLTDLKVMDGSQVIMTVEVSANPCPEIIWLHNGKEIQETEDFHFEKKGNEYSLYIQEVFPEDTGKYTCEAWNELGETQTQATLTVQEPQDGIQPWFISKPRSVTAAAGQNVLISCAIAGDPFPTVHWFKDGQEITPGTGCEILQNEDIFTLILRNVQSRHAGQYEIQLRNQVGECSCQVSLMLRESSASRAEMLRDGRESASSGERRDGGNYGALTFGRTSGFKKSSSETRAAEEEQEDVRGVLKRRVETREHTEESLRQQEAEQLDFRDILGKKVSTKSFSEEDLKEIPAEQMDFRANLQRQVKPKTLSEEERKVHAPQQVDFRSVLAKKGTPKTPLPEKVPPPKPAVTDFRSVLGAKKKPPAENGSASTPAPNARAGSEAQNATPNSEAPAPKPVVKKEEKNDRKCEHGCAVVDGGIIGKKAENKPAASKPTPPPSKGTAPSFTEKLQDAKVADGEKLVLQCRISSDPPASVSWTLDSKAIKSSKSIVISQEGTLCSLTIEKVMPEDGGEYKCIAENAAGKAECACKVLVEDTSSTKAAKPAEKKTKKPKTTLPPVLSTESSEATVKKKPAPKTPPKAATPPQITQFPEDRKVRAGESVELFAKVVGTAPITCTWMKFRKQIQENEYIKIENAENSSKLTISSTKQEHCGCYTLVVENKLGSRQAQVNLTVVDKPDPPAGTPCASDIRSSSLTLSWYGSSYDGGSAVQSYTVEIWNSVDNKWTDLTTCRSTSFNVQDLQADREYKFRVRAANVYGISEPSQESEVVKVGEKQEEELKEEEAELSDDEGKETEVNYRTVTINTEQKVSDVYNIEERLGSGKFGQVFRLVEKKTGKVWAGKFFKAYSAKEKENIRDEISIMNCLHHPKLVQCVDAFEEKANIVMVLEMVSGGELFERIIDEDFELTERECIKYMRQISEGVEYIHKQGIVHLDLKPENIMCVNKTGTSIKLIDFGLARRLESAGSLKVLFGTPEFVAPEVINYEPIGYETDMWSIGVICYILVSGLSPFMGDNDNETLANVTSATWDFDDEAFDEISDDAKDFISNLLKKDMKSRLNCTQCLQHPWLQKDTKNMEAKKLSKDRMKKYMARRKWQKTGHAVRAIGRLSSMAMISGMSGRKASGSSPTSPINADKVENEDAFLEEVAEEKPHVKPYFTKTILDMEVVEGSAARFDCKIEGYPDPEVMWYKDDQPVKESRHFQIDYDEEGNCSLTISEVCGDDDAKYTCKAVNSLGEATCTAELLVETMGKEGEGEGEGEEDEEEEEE

SMILES	Ki [1]	Ki [2]	Ki (Casein kinase II)	Ki [3]	Ki (Protein kinase C (PKC))	Ki [4]
C[C@H]1CNCCN1S(=O)(=O)c1cccc2cnccc12	5.8 µM	97 µM	780 µM	100 µM	6 µM	–
CNCCNS(=O)(=O)c1cccc2cnccc12	0.48 µM	68 µM	950 µM	133 µM	15 µM	1.2 µM
O=S(=O)(NCCNC/C=C/c1ccc(Br)cc1)c1cccc2cnccc12	–	28.3 µM	–	–	–	–
